The supplement of paper PMC10307832

Experiments:
Assay in all cases: relative viability (nuclei count vs DMSO), 5 days (fraction); higher = more cells survive
HOP-62 = tested on: HOP-62
In short: (§1)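 A single step with final 0.05% Triton X-100, 1% formaldehyde and 1 ug/ml Hoechst fixed the cells and stained nuclei 5 days after treatment. Lung cancer cell lines in 1536-well plates had been treated by pin tool the day after seeding with one drug alone or a fixed anchor-drug dose plus five library-drug doses (not always all listed) in √10 steps, and nuclei were counted on 4× images. Relative viability is the ratio of nuclei in treated wells to nuclei in vehicle wells, taken as the median of duplicate plates.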

LXF-289 = tested on: LXF-289
In short: as §1

LC-2-ad = tested on: LC-2-ad
In short: as §1

NCI-H2342 = tested on: NCI-H2342
In short: as §1

HCC-78 = tested on: HCC-78
In short: as §1

NCI-H1755 = tested on: NCI-H1755
In short: as §1

HCC-15 = tested on: HCC-15
In short: as §1

RERF-LC-KJ = tested on: RERF-LC-KJ
In short: as §1

NCI-H1975 = tested on: NCI-H1975
In short: as §1

NCI-H2126 = tested on: NCI-H2126
In short: as §1

A-427 = tested on: A-427
In short: as §1

SK-LU-1 = tested on: SK-LU-1
In short: as §1

NCI-H1915 = tested on: NCI-H1915
In short: as §1

NCI-H358 = tested on: NCI-H358
In short: as §1

SW 1573 = tested on: SW 1573
In short: as §1

NCI-H2228 = tested on: NCI-H2228
In short: as §1

NCI-H1734 = tested on: NCI-H1734
In short: as §1

NCI-H1792 = tested on: NCI-H1792
In short: as §1

PC-3 [JPC-3] = tested on: PC-3 [JPC-3]
In short: as §1

NCI-H647 = tested on: NCI-H647
In short: as §1

NCI-H522 = tested on: NCI-H522
In short: as §1

NCI-H2347 = tested on: NCI-H2347
In short: as §1

Nc1ccn([C@@H]2O[C@H](CO)[C@@H](O)[C@@H]2O)c(=O)n1 [Cytarabine] + COc1cccc2cc(-c3nc([C@H]4CC[C@H](C(=O)O)CC4)n4ncnc(N)c34)[nH]c12 [OSI-027] (partner 0.5 µM)
relative viability (HOP-62; first compound 0.005 µM): 0.554
relative viability (HOP-62; first compound 0.01581 µM): 0.474
relative viability (HOP-62; first compound 0.05 µM): 0.458
relative viability (HOP-62; first compound 0.1581 µM): 0.141
relative viability (HOP-62; first compound 0.5 µM): 0.12
relative viability (LXF-289; first compound 0.005 µM): 0.671
relative viability (LXF-289; first compound 0.01581 µM): 0.634
relative viability (LXF-289; first compound 0.05 µM): 0.419
relative viability (LXF-289; first compound 0.1581 µM): 0.237
relative viability (LXF-289; first compound 0.5 µM): 0.113
relative viability (LC-2-ad; first compound 0.005 µM): 0.734
relative viability (LC-2-ad; first compound 0.01581 µM): 0.69
relative viability (LC-2-ad; first compound 0.05 µM): 0.539
relative viability (LC-2-ad; first compound 0.1581 µM): 0.344
relative viability (LC-2-ad; first compound 0.5 µM): 0.318
relative viability (NCI-H2342; first compound 0.005 µM): 0.511
relative viability (NCI-H2342; first compound 0.01581 µM): 0.591
relative viability (NCI-H2342; first compound 0.05 µM): 0.511
relative viability (NCI-H2342; first compound 0.1581 µM): 0.549
relative viability (NCI-H2342; first compound 0.5 µM): 0.459
relative viability (HCC-78; first compound 0.005 µM): 0.368
relative viability (HCC-78; first compound 0.01581 µM): 0.349
relative viability (HCC-78; first compound 0.05 µM): 0.314
relative viability (HCC-78; first compound 0.1581 µM): 0.242
relative viability (HCC-78; first compound 0.5 µM): 0.258
relative viability (NCI-H1755; first compound 0.005 µM): 0.574
relative viability (NCI-H1755; first compound 0.01581 µM): 0.578
relative viability (NCI-H1755; first compound 0.05 µM): 0.561
relative viability (NCI-H1755; first compound 0.1581 µM): 0.318
relative viability (NCI-H1755; first compound 0.5 µM): 0.309
relative viability (HCC-15; first compound 0.005 µM): 0.597
relative viability (HCC-15; first compound 0.01581 µM): 0.67
relative viability (HCC-15; first compound 0.05 µM): 0.669
relative viability (HCC-15; first compound 0.1581 µM): 0.56
relative viability (HCC-15; first compound 0.5 µM): 0.412
relative viability (RERF-LC-KJ; first compound 0.005 µM): 0.461
relative viability (RERF-LC-KJ; first compound 0.01581 µM): 0.477
relative viability (RERF-LC-KJ; first compound 0.05 µM): 0.5
relative viability (RERF-LC-KJ; first compound 0.1581 µM): 0.391
relative viability (RERF-LC-KJ; first compound 0.5 µM): 0.297
relative viability (NCI-H1975; first compound 0.005 µM): 0.532
relative viability (NCI-H1975; first compound 0.01581 µM): 0.775
relative viability (NCI-H1975; first compound 0.05 µM): 0.917
relative viability (NCI-H1975; first compound 0.1581 µM): 0.6
relative viability (NCI-H1975; first compound 0.5 µM): 0.315
relative viability (NCI-H2126; first compound 0.005 µM): 0.62
relative viability (NCI-H2126; first compound 0.01581 µM): 0.626
relative viability (NCI-H2126; first compound 0.05 µM): 0.544
relative viability (NCI-H2126; first compound 0.1581 µM): 0.533
relative viability (NCI-H2126; first compound 0.5 µM): 0.45
relative viability (A-427; first compound 0.005 µM): 0.4
relative viability (A-427; first compound 0.01581 µM): 0.259
relative viability (A-427; first compound 0.05 µM): 0.275
relative viability (A-427; first compound 0.1581 µM): 0.16
relative viability (A-427; first compound 0.5 µM): 0.177
relative viability (SK-LU-1; first compound 0.005 µM): 0.275
relative viability (SK-LU-1; first compound 0.01581 µM): 0.294
relative viability (SK-LU-1; first compound 0.05 µM): 0.297
relative viability (SK-LU-1; first compound 0.1581 µM): 0.193
relative viability (SK-LU-1; first compound 0.5 µM): 0.199
relative viability (NCI-H1915; first compound 0.005 µM): 0.657
relative viability (NCI-H1915; first compound 0.01581 µM): 0.57
relative viability (NCI-H1915; first compound 0.05 µM): 0.554
relative viability (NCI-H1915; first compound 0.1581 µM): 0.372
relative viability (NCI-H1915; first compound 0.5 µM): 0.338
relative viability (NCI-H358; first compound 0.005 µM): 0.608
relative viability (NCI-H358; first compound 0.01581 µM): 0.631
relative viability (NCI-H358; first compound 0.05 µM): 0.35
relative viability (NCI-H358; first compound 0.1581 µM): 0.104
relative viability (NCI-H358; first compound 0.5 µM): 0.091
relative viability (SW 1573; first compound 0.005 µM): 0.735
relative viability (SW 1573; first compound 0.01581 µM): 0.49
relative viability (SW 1573; first compound 0.05 µM): 0.466
relative viability (SW 1573; first compound 0.1581 µM): 0.131
relative viability (SW 1573; first compound 0.5 µM): 0.0871
relative viability (NCI-H2228; first compound 0.005 µM): 0.404
relative viability (NCI-H2228; first compound 0.01581 µM): 0.209
relative viability (NCI-H2228; first compound 0.05 µM): 0.244
relative viability (NCI-H2228; first compound 0.1581 µM): 0.097
relative viability (NCI-H2228; first compound 0.5 µM): 0.0984
relative viability (NCI-H1734; first compound 0.005 µM): 0.355
relative viability (NCI-H1734; first compound 0.01581 µM): 0.285
relative viability (NCI-H1734; first compound 0.05 µM): 0.222
relative viability (NCI-H1734; first compound 0.1581 µM): 0.133
relative viability (NCI-H1734; first compound 0.5 µM): 0.13
relative viability (NCI-H1792; first compound 0.005 µM): 0.757
relative viability (NCI-H1792; first compound 0.01581 µM): 0.664
relative viability (NCI-H1792; first compound 0.05 µM): 0.738
relative viability (NCI-H1792; first compound 0.1581 µM): 0.615
relative viability (NCI-H1792; first compound 0.5 µM): 0.427
relative viability (PC-3 [JPC-3]; first compound 0.005 µM): 0.607
relative viability (PC-3 [JPC-3]; first compound 0.01581 µM): 0.721
relative viability (PC-3 [JPC-3]; first compound 0.05 µM): 0.727
relative viability (PC-3 [JPC-3]; first compound 0.1581 µM): 0.499
relative viability (PC-3 [JPC-3]; first compound 0.5 µM): 0.454
relative viability (NCI-H647; first compound 0.005 µM): 0.479
relative viability (NCI-H647; first compound 0.01581 µM): 0.33
relative viability (NCI-H647; first compound 0.05 µM): 0.271
relative viability (NCI-H647; first compound 0.1581 µM): 0.105
relative viability (NCI-H647; first compound 0.5 µM): 0.0867
relative viability (NCI-H522; first compound 0.005 µM): 0.717
relative viability (NCI-H522; first compound 0.01581 µM): 0.599
relative viability (NCI-H522; first compound 0.05 µM): 0.395
relative viability (NCI-H522; first compound 0.1581 µM): 0.48
relative viability (NCI-H522; first compound 0.5 µM): 0.539
relative viability (NCI-H2347; first compound 0.005 µM): 0.401
relative viability (NCI-H2347; first compound 0.01581 µM): 0.282
relative viability (NCI-H2347; first compound 0.05 µM): 0.336
relative viability (NCI-H2347; first compound 0.1581 µM): 0.268
relative viability (NCI-H2347; first compound 0.5 µM): 0.327
